According to PubChem BioAssay AID248 (DTP/NCI, 2004):
Several values for one entry are separate records, joined by “and”; a condition that tells them apart may be missing. Equal entries are not always repeated. Toxic doses and inconclusive results are not listed. Cut-off read from the data, not from the text of the source: active = T/C of 150% or more; inactive = T/C below 125%.

Tested on: L1210 leukemia ip in BDF1 mice, survival T/C
Experiment: NCI In Vivo Anticancer Drug Screen. Data for tumor model L1210 Leukemia (intraperitoneal) in B6D2F1 (BDF1) mice
Details: endpoint: mean survival time, higher = longer survival
Method in brief: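 In this screen, tumor-bearing mice given compound are compared to those given vehicle, and their survival values are reported as a treated-to-control quotient.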

[1] = dose: 100.0 mg/kg/injection, schedule: Q01DX009 (ip), vehicle: saline with Tween-80
[2] = dose: 200.0 mg/kg/injection, schedule: Q01DX009 (ip), vehicle: saline with Tween-80
[3] = dose: 100.0 mg/kg/injection, schedule: Q04DX003 (ip), vehicle: Klucel (hydroxypropylcellulose) (HPC)
[4] = dose: 200.0 mg/kg/injection, schedule: Q04DX003 (ip), vehicle: Klucel (hydroxypropylcellulose) (HPC)
[5] = dose: 400.0 mg/kg/injection, schedule: Q04DX003 (ip), vehicle: Klucel (hydroxypropylcellulose) (HPC)
[6] = dose: 100.0 mg/kg/injection, schedule: Q04DX003 (ip), vehicle: saline with Tween-80
[7] = dose: 200.0 mg/kg/injection, schedule: Q04DX003 (ip), vehicle: saline with Tween-80
[8] = dose: 400.0 mg/kg/injection, schedule: Q04DX003 (ip), vehicle: saline with Tween-80
[9] = dose: 100.0 mg/kg/injection, schedule: Q01DX009 (ip), vehicle: Klucel (hydroxypropylcellulose) (HPC)
[10] = dose: 200.0 mg/kg/injection, schedule: Q01DX009 (ip), vehicle: Klucel (hydroxypropylcellulose) (HPC)
[11] = dose: 400.0 mg/kg/injection, schedule: Q01DX009 (ip), vehicle: Klucel (hydroxypropylcellulose) (HPC)
[12] = dose: 100.0 mg/kg/injection, schedule: Q01DX001 (ip), vehicle: saline
[13] = dose: 200.0 mg/kg/injection, schedule: Q01DX001 (ip), vehicle: saline
[14] = dose: 400.0 mg/kg/injection, schedule: Q01DX001 (ip), vehicle: saline
[15] = dose: 50.0 mg/kg/injection, schedule: Q01DX009 (ip), vehicle: saline with Tween-80
[16] = dose: 50.0 mg/kg/injection, schedule: Q01DX001 (ip), vehicle: saline

Measured: T/C

COc1ccc(CNCCNCCNCc2ccc(OC)cc2)cc1
inactive: [1] 107 % of control | dose: 100.0 mg/kg/injection, schedule: Q04DX003 (ip), vehicle: saline 104 % of control | [2] 109 % of control | dose: 200.0 mg/kg/injection, schedule: Q04DX003 (ip), vehicle: saline 102 % of control | dose: 400.0 mg/kg/injection, schedule: Q01DX009 (ip), vehicle: saline with Tween-80 102 % of control | dose: 400.0 mg/kg/injection, schedule: Q04DX003 (ip), vehicle: saline 104 % of control

CC1CN1c1nc(N2CC2C)nc(N2CC2C)n1 (configuration not stated)
inactive: dose: 1.56 mg/kg/injection, schedule: Q01DX009 (ip), vehicle: saline 97 % of control | dose: 3.13 mg/kg/injection, schedule: Q01DX009 (ip), vehicle: saline 95 % of control | dose: 5.0 mg/kg/injection, schedule: Q01DX001 (ip), vehicle: saline 100 % of control | dose: 6.25 mg/kg/injection, schedule: Q01DX009 (ip), vehicle: saline 92 % of control | dose: 10.0 mg/kg/injection, schedule: Q01DX001 (ip), vehicle: saline 109 % of control | dose: 12.5 mg/kg/injection, schedule: Q01DX009 (ip), vehicle: saline 87 % of control | dose: 20.0 mg/kg/injection, schedule: Q01DX001 (ip), vehicle: saline 109 % of control

CSc1ccccc1NC(=O)c1cccs1
inactive: dose: 100.0 mg/kg/injection, schedule: Q04DX002 (ip), vehicle: Klucel (hydroxypropylcellulose) (HPC) 89 % of control | dose: 200.0 mg/kg/injection, schedule: Q04DX002 (ip), vehicle: Klucel (hydroxypropylcellulose) (HPC) 96 % of control | dose: 400.0 mg/kg/injection, schedule: Q04DX002 (ip), vehicle: Klucel (hydroxypropylcellulose) (HPC) 93 % of control

CCCCCCCCCCOc1ccc(C=O)c(OC)c1
inactive: [3] 98 % of control | [4] 93 % of control | [5] 91 % of control

CCCCNS(=O)(=O)CCCC
inactive: [6] 105 % of control | [7] 101 % of control | [8] 97 % of control

CCOP(=O)(OC(C)CC)OC(C)CC (configuration not stated)
inactive: dose: 100.0 mg/kg/injection, schedule: Q04DX003 (ip), vehicle: carboxymethylcellulose (CMC) 93 % of control | dose: 200.0 mg/kg/injection, schedule: Q04DX003 (ip), vehicle: carboxymethylcellulose (CMC) 87 % of control

COC(=O)c1ccc(OCCOc2ccc(C(C)(C)CC(C)(C)C)cc2)c([N+](=O)[O-])c1
inactive: [6] 91 % of control | [7] 93 % of control | [8] 91 % of control

CSc1ccc(C(=NO)c2ccc(SC)cc2)cc1
inactive: [9] 95 % of control | [3] 101 % of control | [10] 103 % of control | [4] 94 % of control | [11] 95 % of control | [5] 103 % of control

NOCc1csc(N)n1
inactive: [12] 101 % of control | [13] 95 % of control | [14] 104 % of control

CC(=O)c1ccc(N=Nc2c(N)nc(N)[nH]c2=O)cc1
inactive: dose: 100.0 mg/kg/injection, schedule: Q01DX001 (ip), vehicle: carboxymethylcellulose (CMC) 101 % of control | dose: 200.0 mg/kg/injection, schedule: Q01DX001 (ip), vehicle: carboxymethylcellulose (CMC) 106 % of control | dose: 400.0 mg/kg/injection, schedule: Q01DX001 (ip), vehicle: carboxymethylcellulose (CMC) 119 % of control

CCCCN(CCCC)CCCN1C(=O)c2ccccc2S1(=O)=O
inactive: dose: 44.0 mg/kg/injection, schedule: Q01DX Z (ip), vehicle: methylcellulose (MC) 96 % of control | dose: 66.0 mg/kg/injection, schedule: Q01DX Z (ip), vehicle: methylcellulose (MC) 100 % of control | dose: 100.0 mg/kg/injection, schedule: Q01DX Z (ip), vehicle: methylcellulose (MC) 96 % of control

O=C1CCCCCN1
inactive: [12] 101 % of control | dose: 100.0 mg/kg/injection, schedule: Q01DX009 (ip), vehicle: saline 100 % of control | dose: 100.0 mg/kg/injection, schedule: Q04DX002 (ip), vehicle: other 98 % of control | [13] 101 % of control | dose: 200.0 mg/kg/injection, schedule: Q01DX009 (ip), vehicle: saline 100 % of control | dose: 200.0 mg/kg/injection, schedule: Q04DX002 (ip), vehicle: other 95 % of control | [14] 103 % of control | dose: 400.0 mg/kg/injection, schedule: Q04DX002 (ip), vehicle: other 101 % of control

O=C(NNC(=S)Nc1ccc(S(=O)(=O)N2CCCCC2)cc1)c1ccncc1
inactive: [9] 92 % of control | [10] 92 % of control | [11] 91 % of control

CC(=O)Nc1ccc(C=O)cc1[N+](=O)[O-]
inactive: [9] 101 % of control | [3] 100 % of control | [10] 104 % of control | [4] 100 % of control | [11] 94 % of control | [5] 100 % of control

COC(=O)C1CCC(N)CC1 (configuration not stated)
inactive: [12] 106 % of control and 105 % of control | [13] 104 % of control and 94 % of control | [14] 108 % of control and 96 % of control

CCOc1ccn(CC(=O)c2ccc([N+](=O)[O-])o2)c(=O)n1
inactive: [15] 96 % of control | [1] 94 % of control | [6] 98 % of control | [7] 91 % of control

C=CCNc1ccc(C)cc1
inactive: dose: 50.0 mg/kg/injection, schedule: Q01DX009 (ip), vehicle: other 92 % of control | dose: 100.0 mg/kg/injection, schedule: Q01DX009 (ip), vehicle: other 104 % of control | dose: 100.0 mg/kg/injection, schedule: Q04DX003 (ip), vehicle: other 100 % of control | dose: 200.0 mg/kg/injection, schedule: Q04DX003 (ip), vehicle: other 109 % of control

Cc1cc(C)c(S(=O)(=O)c2ccc([N+](=O)[O-])c3ccccc23)c(C)c1
inactive: dose: 100.0 mg/kg/injection, schedule: Q01DX001 (ip), vehicle: Klucel (hydroxypropylcellulose) (HPC) 107 % of control | dose: 200.0 mg/kg/injection, schedule: Q01DX001 (ip), vehicle: Klucel (hydroxypropylcellulose) (HPC) 91 % of control | dose: 400.0 mg/kg/injection, schedule: Q01DX001 (ip), vehicle: Klucel (hydroxypropylcellulose) (HPC) 101 % of control

CCOC(=O)C1CC2CCC1CC2 (configuration not stated)
inactive: dose: 25.0 mg/kg/injection, schedule: Q01DX005 (ip), vehicle: saline with Tween-80 92 % of control | dose: 25.0 mg/kg/injection, schedule: Q01DX009 (ip), vehicle: saline with Tween-80 102 % of control | dose: 25.0 mg/kg/injection, schedule: Q04DX002 (ip), vehicle: saline with Tween-80 106 % of control | dose: 50.0 mg/kg/injection, schedule: Q01DX005 (ip), vehicle: saline with Tween-80 92 % of control | [15] 94 % of control | dose: 50.0 mg/kg/injection, schedule: Q04DX002 (ip), vehicle: saline with Tween-80 94 % of control | dose: 100.0 mg/kg/injection, schedule: Q01DX005 (ip), vehicle: saline with Tween-80 89 % of control | [1] 109 % of control | dose: 100.0 mg/kg/injection, schedule: Q04DX002 (ip), vehicle: saline with Tween-80 97 % of control and 103 % of control

CC(C)CN(C)N=Nc1ccccc1C(=O)NN
inactive: [15] 100 % of control | dose: 50.0 mg/kg/injection, schedule: Q04DX003 (ip), vehicle: saline with Tween-80 98 % of control | [1] 98 % of control | [6] 98 % of control | [2] 121 % of control | [7] 103 % of control

CCCCN1c2ccccc2NP1(=S)c1ccccc1 (configuration not stated)
inactive: dose: 100.0 mg/kg/injection, schedule: Q04DX002 (ip), vehicle: DMSO 93 % of control | dose: 200.0 mg/kg/injection, schedule: Q04DX002 (ip), vehicle: DMSO 101 % of control

C[N+](C)(C)Cc1ccc2ccccc2c1Br
inactive: [16] 97 % of control

C(=C/P(c1ccccc1)c1ccccc1)/P(c1ccccc1)c1ccccc1
inactive: dose: 75.0 mg/kg/injection, schedule: Q01DX001 (ip), vehicle: saline 108 % of control | dose: 150.0 mg/kg/injection, schedule: Q01DX001 (ip), vehicle: saline 98 % of control | dose: 300.0 mg/kg/injection, schedule: Q01DX001 (ip), vehicle: saline 93 % of control

CCOc1cc(C2=NNc3n[nH]c(=S)n3N2)ccc1O
inactive: [9] 94 % of control | [3] 96 % of control | [10] 98 % of control | [4] 103 % of control | [11] 97 % of control | [5] 102 % of control

O=C1/C=C2/C=CC=CN2C(=O)/C=C2/C=CC=CN12
inactive: [16] 104 % of control | [12] 101 % of control | [13] 104 % of control | [14] 97 % of control

CC(=O)Nc1c(I)c(NC(C)=O)c(I)c(C(=O)O)c1I
inactive: [15] 105 % of control | [1] 99 % of control | [2] 108 % of control
